Results published in US20040019092A1, “Non-peptide somatostatin receptor ligands” (priority 2001, published 2004).
“And” between values parts separate entries of the source, which are not always exact repeats. Identical values can stand only once.

Tests used:
[1] = target: T1, SS-1 sites (sst2 receptors) (Rattus norvegicus, UniProt P30680); test: Ex-vivo binding of [^125I]-labeled Tyr^3 analogue of Octreotride (SS-1/sst2) in rat cortex and hippocampus after s.c. dosing; design: species or system Wistar rats; conditions: for NS non specific binding, individual animals / NS non specific binding, mean / SB specific binding, individual animals / SB specific binding, mean / TB total binding, individual animals / TB total binding, mean / percent specific binding remaining compared to controls: Tyr^3-Oct, 60 min
T1 construct: from tissue; host or cells: Wistar rat cerebral cortex and hippocampus homogenate
T1 sequence (P30680 whole entry): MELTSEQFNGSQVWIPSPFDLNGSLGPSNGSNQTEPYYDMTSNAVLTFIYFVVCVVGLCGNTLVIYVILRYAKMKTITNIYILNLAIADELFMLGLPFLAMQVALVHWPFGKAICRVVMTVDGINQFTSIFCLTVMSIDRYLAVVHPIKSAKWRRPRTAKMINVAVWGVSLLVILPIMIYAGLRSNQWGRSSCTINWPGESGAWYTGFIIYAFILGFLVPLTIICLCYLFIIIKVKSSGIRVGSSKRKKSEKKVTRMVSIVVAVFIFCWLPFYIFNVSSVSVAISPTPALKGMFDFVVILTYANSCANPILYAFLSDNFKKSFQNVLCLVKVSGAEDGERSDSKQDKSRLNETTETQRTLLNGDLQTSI
Protocol: Ex-vivo binding was used to determine to whether compound 14 (a potent sst2 receptor selective hydantoin) when applied peripherally to rates can cross the blood brain barrier, as robust behavioral models are not fully characterized and blood-brain penetration models are not routinely available. […] The rats were given saline or drug sub-cutaneously at the indicated dose (in saline) and killed 60 minutes after application with CO2. The brain was removed and placed on ice; the cerebral cortex and hippocampus were dissected out and weighted. […] The homogenate was stored on ice and used immediately or deep frozen (-70° C.) until used (1-3 days). […] The filters were dried and counted in a Wallac Beta plate counter. The tables list the effects of compound 14 on cortex (Table 6) and hippocampus (Table 7) binding at the doses and times indicated (see also FIGS. 3 and 4). TB=total binding, NS=non specific binding, SB=specific binding. The values are indicated in cpm for individual animals, mean, n=number of animals, sem=standard error of the mean; percent=% specific binding remaining following treatment compared to controls.

[2] = target: sst2 (Homo sapiens, UniProt P30874); test: sst2 cyclase (second messenger studies); type: cell-based
Chain of sst2 (P30874 whole entry, species assumed): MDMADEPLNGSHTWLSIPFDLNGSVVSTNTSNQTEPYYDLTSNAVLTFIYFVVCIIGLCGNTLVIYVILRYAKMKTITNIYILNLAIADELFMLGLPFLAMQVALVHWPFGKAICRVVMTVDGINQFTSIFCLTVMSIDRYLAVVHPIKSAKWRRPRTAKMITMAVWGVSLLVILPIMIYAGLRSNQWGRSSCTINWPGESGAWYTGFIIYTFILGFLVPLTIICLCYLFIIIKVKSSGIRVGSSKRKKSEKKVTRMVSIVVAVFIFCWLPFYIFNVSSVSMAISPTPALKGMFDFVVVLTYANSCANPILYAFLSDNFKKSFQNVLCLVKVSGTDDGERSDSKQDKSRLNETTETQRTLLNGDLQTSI
Excerpt: In particular the compounds of the invention bind to somatostatin receptors. More particularly they are selective agonists at Somatostatin sst2 receptors, as determined in radioligand binding and second messenger studies (see for example K. Kaupmann et al., FEBS LETTERS 1993, 331, […]).

[3] = Unidirectional brain extraction (Brain Uptake Index), single intracarotid injection; type: in vivo, Wistar rats; conditions: rat, 5 s after intracarotid injection, Ringer buffer as vehicle
Protocol: The unidirectional influx for [^14C]-42 was measured by the brain sampling single injection technique in adult male Wistar rats (˜220 g) under anesthesia (ketamine 130 mg/kg i.m., xylazine 1.3 mg/kg i.m.) (Oldendorf, W. H. “Measurement of brain uptake of radiolabeled substances using tritiated water internal standard” Brain Res., 1970, 24, 372-376). A bolus of ˜220 μL 0.001 M HEPES-buffered Ringer's solution pH 7.4, or rat plasma, was rapidly injected into the common carotid artery. The bolus contained [^14C]-42 (68 μg/mL) together with tritiated water (25 μCi/mL); the amount of ethanol in the injectate was 1% (v/v). The animals were decapitated 5 seconds after the injection. […] The percentage BUI (Brain Uptake Index) was calculated as […]
The brain extraction ratio E was calculated from E=BUI*0.62, where 0.62 represents the brain extraction ratio of tritiated water (Pardridge, W. M. et al. “Absence of albumin receptor on brain capillaries in vivo or in vitro” Am. J. Physiol, 1985, 249, E264-E267). In order to quantify a possible sequestration of [^14C]-42 by the brain microvasculature, the brain hemispheres of 3 rats were submitted to capillary depletion (Triguero, D, et al. “Capillary depletion method for quantifying the blood-brain barrier transcytosis of circulating peptides and plasma proteins” J. Neurochem, 1990, 54, 1882-1888). […]

[4] = in vivo; conditions: male, Wistar, rat
Protocol: The pharmacokinetic study was performed with 3 male Wistar rats (BRL) weighing 300-330 g with a one week interval between administration phases. The day before the first dosing, the rats underwent surgical implantation of an in-dwelling cannula; the right femoral artery was cannulated and the tube was passed subcutaneously to emerge at the back of the neck. The animals were individually housed in metabolism cages and fasted overnight before administrations.
The dose solution was administered (5 mL/kg) by gastric incubation.
The dose solution was administered (2 mL/kg) into the surgically exposed femoral vein.
During the study, 18 blood samples (100-500 μL) were taken, up to 48 hours post-dose from the cannulated femoral artery representing a total volume of 5.7 mL blood. The loss of blood was compensated by infusion of 6 times 1 mL of blood from donor rats. Urine samples were collected up to 48 hours post-dose. For the analysis of the in vivo brain distribution, 3 male rats were intravenously dosed (1 mg/kg or 72 μCi/kg) as described above. At 0.5 hours after administration, the rats were sacrificed; blood and brain were collected.
Determination of radioactivity in blood, plasma, brain homogenates and in urine, was carried out by direct liquid scintillation counting. Prior to radiometric determination, blood and tissue were solubilized in Solutron (Kontron Instruments, Zurich, Switzerland). After adding 10 mL of scintillation cocktail (Lumasafe, Lumac, Landgraaf, the Netherlands), all samples were counted in Tri-carb liquid scintillation analyzer (Canberra Packard, IL).
The procedure involved the addition of 5 μg of non-radiolabeled 42 to each blood sample as an internal standard. After adding 1 mL of acetonitrile, the sample was mixed with a Polytron mixer and centrifuged (234000×g, 30 minutes) in a Beckman centrifuge (Model TL100). The supernatant was evaporated in a vacuum centrifuge (Univapo 150H, Zivy). The residue was reconstituted in 250 μL of mobile phase-water (3:1 v/v) and centrifuged (3000×g, 60 s). The supernatant (200 μL) was injected onto HPLC. […] Compound 42 was separated from potential metabolites and endogenous compounds on a RP18 endcapped Superspher column, 125 mm×4 mm (Merck) at 45° C. The mobile phase consisted of 0.1% tetramethylammonium hydroxide—acetonitrile (500:500 v/v). The flow rate was 1 mL/min; the effluent was monitored at 260 nm. […] The limit of quantification was 0.3 ng/mL.
The peeling method was applied to describe the data by a compartment model approach, characterized by the following equation: C═C1*e^λ1−t+C2*e^λ2−t. The initial estimates of C1, λ1, C2, λ2 were taken to generate the best fit using the computer software ELSFIT. The estimates for half-lives were calculated as T1/2λi=ln2/λi.

[5] = Plasma protein binding, equilibrium dialysis, human plasma; type: in vitro ADME; conditions: 50-5000 ng/mL, 37° C.
Protocol: (§1) In vitro blood distribution and plasma protein binding. For blood distribution studies, fresh, heparinized rat blood (n=3) was spiked with [^14C]-42 to achieve the final concentrations of 5, 50, 500 and 5000 ng/mL. After a 30-minutes incubation at 4° C., 22° C. and 37° C., the samples were centrifuged (1600×g, 10 minutes, at the incubation temperature) to get plasma. The fraction free of 42 in plasma of rat and human was determined by equilibrium dialysis. Phosphate buffer was spiked with [^14C]-42 (50, 500, 5000 ng/mL) and dialyzed versus blank rat and human plasma at 37° C. for 2 hours. The radioactivity was determined in spiked blood samples, in plasma obtained after centrifugation and in both compartments after dialysis.

[6] = In vitro blood distribution; type: in vitro ADME; conditions: rat blood, 5-5000 ng/mL
Protocol: as §1

## Cc1cccc2c(CC3C(=O)N(CCCCCN)C(=O)N3S(=O)(=O)c3ccc(Oc4ccc(O)cc4)c(C#N)c3)c[nH]c12 (stereo not shown) [Compound 14]
[1]; cortex and hippocampus, 10 mg/kg subcutaneous, 60 minutes
  maximal decrease of sst2 (SS-1) binding: about 20%
[1]; cortex, 0.3 mg/kg s.c.
  NS non specific binding, individual animals: 2753 cpm and 2634 cpm and 2685 cpm
  NS non specific binding, mean: 2691 cpm
  SB specific binding, individual animals: 22427 cpm and 21257 cpm and 23789 cpm
  SB specific binding, mean: 22491 cpm
  TB total binding, individual animals: 25180 cpm and 23891 cpm and 26474 cpm
  TB total binding, mean: 25182 cpm
  percent specific binding remaining compared to controls: 98%
[1]; cortex, 1 mg/kg s.c.
  NS non specific binding, individual animals: 2623 cpm and 2705 cpm and 2642 cpm
  NS non specific binding, mean: 2657 cpm
  SB specific binding, individual animals: 19722 cpm and 23378 cpm and 21824 cpm
  SB specific binding, mean: 21641 cpm
  TB total binding, individual animals: 22345 cpm and 26063 cpm and 24466 cpm
  TB total binding, mean: 24298 cpm
  percent specific binding remaining compared to controls: 94%
[1]; cortex, 3 mg/kg s.c.
  NS non specific binding, individual animals: 2519 cpm and 2511 cpm and 2559 cpm
  NS non specific binding, mean: 2530 cpm
  SB specific binding, individual animals: 20444 cpm and 19624 cpm and 21700 cpm
  SB specific binding, mean: 20658 cpm
  TB total binding, individual animals: 22963 cpm and 22335 cpm and 24259 cpm
  TB total binding, mean: 23186 cpm
  percent specific binding remaining compared to controls: 90%
[1]; cortex, 10 mg/kg s.c.
  NS non specific binding, individual animals: 2527 cpm and 2575 cpm and 2740 cpm
  NS non specific binding, mean: 2614 cpm
  SB specific binding, individual animals: 19525 cpm and 18340 cpm and 19640 cpm
  SB specific binding, mean: 19168 cpm
  TB total binding, individual animals: 22052 cpm and 20915 cpm and 22380 cpm
  TB total binding, mean: 21782 cpm
  percent specific binding remaining compared to controls: 84%
[1]; hippocampus, 0.3 mg/kg s.c.
  NS non specific binding, individual animals: 2116 cpm and 2294 cpm and 2092 cpm
  NS non specific binding, mean: 2167 cpm
  SB specific binding, individual animals: 12566 cpm and 13303 cpm and 16338 cpm
  SB specific binding, mean: 14069 cpm
  TB total binding, individual animals: 14682 cpm and 15597 cpm and 18430 cpm
  TB total binding, mean: 16238 cpm
  percent specific binding remaining compared to controls: 113%
[1]; hippocampus, 1 mg/kg s.c.
  NS non specific binding, individual animals: 2144 cpm and 1953 cpm and 1913 cpm
  NS non specific binding, mean: 2003 cpm
  SB specific binding, individual animals: 12048 cpm and 15010 cpm and 14100 cpm
  SB specific binding, mean: 13719 cpm
  TB total binding, individual animals: 14192 cpm and 16963 cpm and 16013 cpm
  TB total binding, mean: 15723 cpm
  percent specific binding remaining compared to controls: 110%
[1]; hippocampus, 3 mg/kg s.c.
  NS non specific binding, individual animals: 1859 cpm and 1984 cpm and 1959 cpm
  NS non specific binding, mean: 1934 cpm
  SB specific binding, individual animals: 11172 cpm and 9232 cpm and 10980 cpm
  SB specific binding, mean: 10461 cpm
  TB total binding, individual animals: 13031 cpm and 11216 cpm and 12939 cpm
  TB total binding, mean: 12395 cpm
  percent specific binding remaining compared to controls: 84%
[1]; hippocampus, 10 mg/kg s.c.
  NS non specific binding, individual animals: 1886 cpm and 2078 cpm and 2037 cpm
  NS non specific binding, mean: 2000 cpm
  SB specific binding, individual animals: 11059 cpm and 10041 cpm and 8937 cpm
  SB specific binding, mean: 10012 cpm
  TB total binding, individual animals: 12945 cpm and 12119 cpm and 10974 cpm
  TB total binding, mean: 12013 cpm
  percent specific binding remaining compared to controls: 80%
[2]
  sst2 cyclase pEC50: 9.32

## N#Cc1cc(S(=O)(=O)N2C(=O)N(CCCCCN)C(=O)C2Cc2c[nH]c3ccccc23)ccc1Oc1ccc(N)cc1 (stereo not shown) [Compound 42]
[3]
  unidirectional brain extraction (BUI experiments), Ringer buffer: 41%
[4]
  bioavailability: 1.3 ± 0.9%
[4]; iv, 1 mg/kg
  Vd: 20 L/kg
  clearance: 4.5 mL/min
[4]; iv, first half-life t1/2λ1
  half-life: 0.45 h
[4]; iv, terminal half-life t1/2
  half-life: 24 h
[5]
  fraction free in human plasma: 15-23%
[6]; 4° C.
  proportion present in plasma at 4° C.: 69-92%
[6]; 37° C.
  proportion present in plasma at 37° C.: 40-60%
